Laboratory results taken from patent US12617818B2, “Compositions and methods for modulating myosin subfragment-2 coiled coil stability and methods for using them” (UNIVERSITY OF NORTH TEXAS, priority 2020, dated 2026).
pEC50, pKd: −log10 of the molar value. “And” between values parts separate entries of the source, which are not always exact repeats. Equal values may be shown once.

What was measured:
[1] = test system: rabbit skeletal myofibrils; assay: Myofibrillar contractility assay (incubated myofibrils, 1 mM ATP); type: biochemical
[2] = molecular target: T1, cardiac muscle myosin S2 mutant peptide E924K (MYH7) (Homo sapiens, UniProt P12883, E924K); assay: FRET of E924K mutant cardiac myosin S2 peptide dimer with stabilizer; type: binding
T1 construct: cardiac muscle myosin S2 peptides region 921 to 939; host or cells: chemical synthesis
Source text: This mutation also causes mechanical instability and unstable coiled coil. Sequence of this mutation was obtained using PDB. A 19 residue peptide of this region was chemically synthesized. Generated amino acid sequence used is as follow: • E924K: NH2-[…]—COOH (SEQ ID NO:9)
Resonance energy probes (donor and acceptor) were covalently attached to synthetic myosin S2 peptides of cardiac muscle, E930del cardiac muscle, E924K cardiac muscle, smooth muscle, and skeletal muscle (Aboonasrshiraz, N., 2020).
Acceptor probe was conjugated to muscle myosin S2 peptides at N-terminus. Muscle myosin S2 peptides were dissolved in 20 mM HEPES buffer at pH 8.0. And FITC was dissolved in few drops of N, N dimethyl formamide. Lastly, FITC and muscle myosin S2 peptide was reacted together in 1 to 1 molar ratio and was let to react for 120 minutes at room temperature. The FITC conjugated S2 peptides were purified using […]. […]
In FRET assay, Fluorescein Isothiocyanate (FITC) functioned as fluorescent acceptor probe and Terbium Diethylene Triamine Pentaacetic Acid-Cytosine (Lanthanide-DTPA-Cytosine) functioned as donor probe. […] Lifetime of donor probe was measured in milliseconds.
E924K and Edel930; the myosin S2 HCM mutants, form unstable dimers. […] The calculated separation distance in presence of the stabilizer peptide was 3.65 nm. […]

[3] = molecular target: T2, cardiac muscle myosin S2 peptide E930del (MYH7 E930del) (Homo sapiens, UniProt P12883, DEL931-931); assay: GFS, uncoiling of E930del cardiac myosin S2 peptide dimer; type: biochemical; conditions: length 10 nm; in presence of stabilizer; ± SEM
T2 construct: host or cells: chemical synthesis
T2 sequence (P12883 with tags, fused parts or gaps DEL931-931): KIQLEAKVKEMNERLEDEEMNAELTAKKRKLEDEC
Source text: 3-aminopropyltriethoxysilane, acetone, coupling buffer (0.01 M pyridine in water with pH 6.0), 5% glutaraldehyde, quenching solution (1 M glycine in water with pH 7.0), blocking buffer (0.01 M Tris, 0.1% sodium azide, 0.1% bovine serum albumin, 0.15 M sodium chloride, and 0.001 M ethylenediaminetetraacetic acid with pH 7.0), wash buffer (0.01 M Tris, 0.1% sodium azide, 0.15 M sodium chloride, and 0.001 M ethylenediaminetetraacetic acid with pH 7.0) low salt buffer (0.1 M potassium chloride, 0.02 M imidazole, 5 mM magnesium chloride, with pH 7.0), 1-ethyl-3-(3-dimethyaminopropyl) carbodiimide, N-hydroxysuccinamide, iodoacetamide-succinimidyl ester, 8M urea solution (50 mM imidazole and 0.1 mM tris (2-carboxyethyl) phosphine with pH 7.0) monodisperse silica beads, glass slides, glass coverslips, vacuum grease, rabbit skeletal myosin, purified actin (G-actin), 1 μM human β-cardiac myosin S2 peptide, 1 μM human β-cardiac mutants myosin S2 peptide (E930del and E924K), 1 μM human skeletal myosin S2 peptide, 1 μM human smooth myosin S2 peptide, stabilizer peptide, and destabilizer peptide. A light microscope with an objective lens of 10× was mounted on an alt-azimuthal mount. A digital video camera of Sony, XCD-V60 was replaced with the ocular lenses. Extension springs on steel bracket held the alt-azimuthal mount suspended.
Gravitational force spectroscopy (GFS), is a single molecule force spectroscopy that utilizes gravitational force to measure absolute length of a single molecule at the given force calculated by the density of the bead suspending the molecule. This technique was discovered and developed in Root lab, which measures the forces in piconewton and sub-piconewton levels. Other than absolute length of a molecule, GFS measures force range required to uncoil, stretch or extend the molecule yielding a force-distance profile for the suspended molecule. Besides that, based on the force-distance profile, number of amino acids within the molecule can be calculated. […] The GFS allowed to test the flexibility or stability of a single molecule of myosin S2 peptide and also for the S2 peptides treated with anti-S2 peptides. Flexibility of myosin S2 is not dependent on assembly myosin as a thick filament or myosin in its single molecule form. […]
Free fall mode, another measurement variant of GFS which allows the user to get a force distance profile on a single molecule experiencing the gravitational force. […] During the free fall mode, GFS has a single molecule which is suspended within an immobile edge and mobile bead will now experience the variable force which would be calculated by the product of mass of the bead and the acceleration of the GFS. […]

| SMILES | concentration above which percentage contraction saturated [1] | pKd ([1]; from percentage contraction vs concentration, listed as destabilizer peptide, read-out: binding efficiency (Kd) to myofibrils) | maximum percentage contraction in myofibrils ([1]; in presence of destabilizer peptide) | pEC50 ([1]; read-out: effective concentration on percentage of contraction in myofibrils) | TD (donor lifetime without acceptor) [2] | Force required to uncoil S2 molecule [3] |
| --- | --- | --- | --- | --- | --- | --- |
| CSCC[C@H](NC(=O)[C@H](CCC(=O)O)NC(=O)[C@H](CCCNC(=N)N)NC(=O)[C@H](CCC(=O)O)NC(=O)[C@H](CC(=O)O)NC(=O)[C@H](CCC(=O)O)NC(=O)[C@H](CC(C)C)NC(=O)[C@H](CCCNC(=N)N)NC(=O)[C@H](CCC(=O)O)NC(=O)[C@H](CC(N)=O)NC(=O)[C@H](CCSC)NC(=O)[C@@H](N)CCC(=O)O)C(=O)N[C@@H](CCCCN)C(=O)N[C@@H](C)C(=O)N[C@@H](CCC(=O)O)C(=O)N[C@@H](CC(C)C)C(=O)N[C@H](C(=O)N[C@@H](C)C(=O)N[C@@H](CCCCN)C(=O)O)[C@@H](C)O [Destabilizer] | above 40 nM | 8.10 and 8.11 | 43% and 41% | > 8.00 | – | – |
| C[C@H](NC(=O)[C@H](CCCCN)NC(=O)[C@H](Cc1ccccc1)NC(=O)[C@H](CCCCN)NC(=O)[C@H](CCCCN)NC(=O)[C@H](CCCCN)NC(=O)[C@H](CCCCN)NC(=O)[C@H](CCCCN)NC(=O)[C@H](CCCCN)NC(=O)[C@H](CCCCN)NC(=O)[C@@H](N)CCCCN)C(=O)N[C@@H](CCCCN)C(=O)N[C@@H](CCCCN)C(=O)N[C@@H](CCCCN)C(=O)N[C@@H](CCCCN)C(=O)N[C@@H](CCCCN)C(=O)N[C@@H](CCCCN)C(=O)O [Stabilizer] | – | – | – | – | 1.94E−03 | 1.07E+00 ± 8.28E−02 pN |
